The text below walks through data of US8557797B2, “Triazolopyridine derivatives and their therapeutic use” (Chiesi Farmaceutici S.p.A., priority 2009, dated 2013).

A value given as a limit tells only on which side of the number the result lay.

The subject of assay [1] is TNFα release from LPS activated THP-1 cells or PBMC's. Description: p38 Functional Assay (TNFα release after LPS). Format: cell-based. Conditions: Homo sapiens, 1 h pre-treatment, 0.3% DMSO, read-out: EC50 (inhibition of TNFα release). How it is done:
Inhibition of cellular p38 depresses the release of TNFα, a functional response which is quantified by measurement of the amount of TNFα in the supernatants of LPS activated THP-1 cells (an immortalised monocytic cell line) or peripheral blood mononuclear cells (PBMC's) isolated from freshly drawn human blood.
Cells seeded in 96 well plates are pre-treated by the addition of p38 inhibitors for 1 h followed by addition of lipopolysaccharide (LPS) to activate cytokine production and release. The amount of TNFα released into the cell supernatants is quantified using an R&D Systems enzyme linked immunosorbant assay (ELISA) kit (product DY210) following the manufacturers instructions.
Compounds are diluted in DMSO prior to addition, the final DMSO concentration in the assay being 0.3%. The EC50 is defined as the concentration at which a given compound achieves 50% inhibition of the control.

For assay [2], the target named is T1, p38α (Homo sapiens, UniProt Q16539).
T1 construct: purchased Calbiochem 559324; host or cells: E. coli
Description: p38 Kinase Assay (ATF-2 phosphorylation ELISA). Format: biochemical. Conditions: 2 h pre-incubation, ATP 250 μM, 1% DMSO; read-out: p38α inhibition (IC50 values). How it is done: Human recombinant p38 enzyme expressed in E. coli and activated by incubation with MKK6 enzyme (Calbiochem #559324) is used as source of enzyme activity.
The assay is carried in high binding, clear, flat bottom 96 well assay plates which have been coated with recombinant ATF-2 (Biosource #PHF0043). Test compounds are incubated with p38 kinase for 2 h prior to initiating the kinase assay by the addition of ATP to obtain an assay concentration of 250 μM. Phosphorylation of ATF-2 is detected and quantified using an ELISA. This consists of sequential incubation in the presence of anti-phospho-ATF2, biotinylated anti-IgG and streptavidin-HRP. Incubation with an HRP chromogenic substrate (TMB) results in absorbance that is proportional to the amount of phosphorylated substrate produced. Absorbance is detected using a multiwell plate reader.
Compounds are diluted in DMSO prior to addition to assay buffer, the final DMSO concentration in the assay being 1%.
The IC50 is defined as the concentration at which a given compound achieves 50% inhibition of control.

By EC50 is commonly meant the concentration that produces a half-maximal response. One may read the IC50 as the concentration at which inhibition is half-maximal.

T1 sequence (Q16539 whole entry): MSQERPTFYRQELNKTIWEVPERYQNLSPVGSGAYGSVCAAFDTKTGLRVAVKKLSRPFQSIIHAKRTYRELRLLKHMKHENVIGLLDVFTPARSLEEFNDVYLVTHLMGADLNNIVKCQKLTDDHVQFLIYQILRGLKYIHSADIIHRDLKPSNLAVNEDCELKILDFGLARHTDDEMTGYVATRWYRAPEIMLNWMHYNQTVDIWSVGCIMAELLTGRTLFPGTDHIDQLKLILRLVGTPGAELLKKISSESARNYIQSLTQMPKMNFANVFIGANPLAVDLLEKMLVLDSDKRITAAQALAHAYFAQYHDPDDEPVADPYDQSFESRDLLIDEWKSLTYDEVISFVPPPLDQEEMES

`O=C(NCC1CC1)c1cccc(Sc2ccc3nnc(-c4cccc(OCCN5CCOCC5)c4)n3c2)c1` [Example 1, N-Cyclopropylmethyl-3-{3-[3-(2-morpholin-4-yl-ethoxy)-phenyl]-[1,2,4]triazolo[4,3-a]pyridin-6-ylsulfanyl}-benzamide]: in assay [1], the EC50 is 500 to 7000 nM. Besides, the 50% inhibitory concentration (IC50) in assay [2] lay in the range of 500 to 2000 nM.

Regarding `O=C(Nc1cccc(N2CCOCC2)c1)c1cccc(Sc2ccc3nnc(-c4cccc(OCCN5CCOCC5)c4)n3c2)c1` [Example 2], the EC50 in assay [1] is 100 to 500 nM. Further, the concentration for half-maximal inhibition (IC50) in assay [2] was 100 to 500 nM.

On to `O=C(Nc1ccnc(N2CCOCC2)c1)c1cccc(Sc2ccc3nnc(-c4cccc(OCCN5CCOCC5)c4)n3c2)c1` [Example 3], for which the EC50 in assay [1] lay within 10 to 100 nM. The IC50 in assay [2] is 100 to 500 nM.

Take `Cc1ccc(-n2nc(C(C)(C)C)cc2NC(=O)Cc2ccc(Sc3ccc4nnc(C(C)C)n4c3)cc2)cc1` [Example 6]: the EC50 in assay [1] lay within 10 to 100 nM. For the same compound, the 50% inhibitory concentration (IC50) in assay [2] is less than 10 nM.

`Cc1ccc(-n2nc(C(C)(C)C)cc2NC(=O)Cc2ccc(Sc3ccc4nnc(-c5cccc(OCc6ccccc6)c5)n4c3)cc2)cc1` [Example 8]: the EC50 in assay [1] fell in the range of 100 to 500 nM. In assay [2], the IC50 lay in the range of 10 to 100 nM.

With `Cc1ccc(-n2nc(C(C)(C)C)cc2NC(=O)Nc2ccc(Sc3ccc4nnc(-c5cccc(OCc6ccccc6)c5)n4c3)cc2)cc1` [Example 11], the EC50 in assay [1] was 100 to 500 nM. Besides, the concentration for half-maximal inhibition (IC50) in assay [2] lay in the range of 500 to 2000 nM.

As for `Cc1ccc(-n2nc(C(C)(C)C)cc2NC(=O)Nc2ccc(Sc3ccc4nnc(-c5cccc(OCCN6CCOCC6)c5)n4c3)nc2)cc1` [Example 12, 1-(5-tert-Butyl-2-p-tolyl-2H-pyrazol-3-yl)-3-(6-{3-[3-(2-morpholin-4-yl-ethoxy)-phenyl]-[1,2,4]triazolo[4,3-a]pyridin-6-ylsulfanyl}-pyridin-3-yl)-urea], in assay [1], the EC50 lay in the range of 10 to 100 nM. For the same compound, the IC50 in assay [2] lay within 10 to 100 nM.

Consider `Cc1ccc(-n2nc(C(C)(C)C)cc2NC(=O)Nc2ccc(Sc3ccc4nnc(-c5cccc(OCCN6CCOCC6)c5)n4c3)cn2)cc1` [Example 13, 1-(5-tert-Butyl-2-p-tolyl-2H-pyrazol-3-yl)-3-(5-{3-[3-(2-morpholin-4-yl-ethoxy)-phenyl]-[1,2,4]triazolo[4,3-a]pyridin-6-ylsulfanyl}-pyridin-2-yl)-urea], for which the concentration for a half-maximal effect (EC50) in assay [1] lay within 10 to 100 nM. The half-inhibitory concentration (IC50) in assay [2] was 100 to 500 nM.

For `Cc1ccc(-n2nc(C(C)(C)C)cc2NC(=O)N[C@H]2CC[C@H](Oc3ccc4nnc(-c5cccc(OCCN6CCOCC6)c5)n4c3)CC2)cc1` [Example 14, 1-(5-tert-Butyl-2-p-tolyl-2H-pyrazol-3-yl)-3-(trans-4-{3-[3-(2-morpholin-4-yl-ethoxy)-phenyl]-[1,2,4]triazolo[4,3-a]pyridin-6-yloxy}-cyclohexyl)-urea], in assay [1], the concentration giving a half-maximal response (EC50) was in the range of 10 to 100 nM. In assay [2], the 50% inhibitory concentration (IC50) lay within 10 to 100 nM.

Turning to `Cc1ccc(-n2nc(C(C)(C)C)cc2NC(=O)N[C@H]2CC[C@@H](Oc3ccc4nnc(-c5cccc(OCCN6CCOCC6)c5)n4c3)CC2)cc1` [Example 15], in assay [1], the EC50 lay in the range of 500 to 7000 nM. Further, the IC50 in assay [2] lay within 100 to 500 nM.

For `CC(C)(C)c1cc(NC(=O)N[C@H]2CC[C@H](Oc3ccc4nnc(-c5cccc(OCCN6CCOCC6)c5)n4c3)CC2)n(-c2ccccc2)n1` [Example 16], the EC50 in assay [1] is 500 to 7000 nM. Moreover, in assay [2], the concentration for half-maximal inhibition (IC50) was in the range of 10 to 100 nM.

Consider `Cc1ccc(-n2nc(C(C)(C)C)cc2NC(=O)CN2CCC(Oc3ccc4nnc(-c5cccc(OCCN6CCOCC6)c5)n4c3)CC2)cc1` [Example 17, N-(5-tert-Butyl-2-p-tolyl-2H-pyrazol-3-yl)-2-(4-{3-[3-(2-morpholin-4-yl-ethoxy)-phenyl]-[1,2,4]triazolo[4,3-a]pyridin-6-yloxy}-piperidin-1-yl)-acetamide], for which the EC50 in assay [1] was 500 to 7000 nM. Further, the IC50 in assay [2] lay in the range of 500 to 2000 nM.

Regarding `Cc1ccc(-n2nc(C(C)(C)C)cc2NC(=O)Cc2ccc(Sc3ccc4nnc(-c5cccc(O)c5)n4c3)cc2)cc1` [Example 18, N-(5-tert-Butyl-2-p-tolyl-2H-pyrazol-3-yl)-2-{4-[3-(3-hydroxy-phenyl)-[1,2,4]triazolo[4,3-a]pyridin-6-ylsulfanyl]-phenyl}-acetamide], the EC50 in assay [1] was 10 to 100 nM. The 50% inhibitory concentration (IC50) in assay [2] was less than 10 nM.

Consider `CC(C)c1nnc2ccc(Sc3ccc(CC(=O)Nc4cc(C(C)(C)C)nn4-c4ccc(OCCN5CCOCC5)cc4)cc3)cn12` [Example 19, N-{5-tert-Butyl-2-[4-(2-morpholin-4-yl-ethoxy)-phenyl]-2H-pyrazol-3-yl}-2-[4-(3-isopropyl-[1,2,4]triazolo[4,3-a]pyridin-6-ylsulfanyl)-phenyl]-acetamide], for which the EC50 in assay [1] was in the range of 500 to 7000 nM. In assay [2], the IC50 was in the range of 500 to 2000 nM.

Consider `CC(C)c1nnc2ccc(Sc3ccc(CC(=O)Nc4cc(C(C)(C)C)nn4-c4ccc(O)cc4)cc3)cn12` [Example 20, N-[5-tert-Butyl-2-(4-hydroxy-phenyl)-2H-pyrazol-3-yl]-2-[4-(3-isopropyl-[1,2,4]triazolo[4,3-a]pyridin-6-ylsulfanyl)-phenyl]-acetamide], for which the EC50 in assay [1] was 10 to 100 nM. Further, in assay [2], the IC50 is 10 to 100 nM.

Consider `Cc1ccc(-n2nc(C(C)(C)C)cc2NC(=O)N[C@H]2CC[C@H](Oc3ccc4nnc(C(C)C)n4c3)CC2)cc1` [Example 21, 1-(5-tert-Butyl-2-p-tolyl-2H-pyrazol-3-yl)-3-[4-(3-isopropyl-[1,2,4]triazolo[4,3-a]pyridin-6-yloxy)-cyclohexyl]-urea], for which, in assay [1], the EC50 is 10 to 100 nM. For the same compound, in assay [2], the 50% inhibitory concentration (IC50) was 10 to 100 nM.

In the case of `Cc1ccc(-n2nc(C(C)(C)C)cc2NC(=O)C[C@H]2CC[C@H](Oc3ccc4nnc(C(C)C)n4c3)CC2)cc1` [Example 22, N-(5-tert-Butyl-2-p-tolyl-2H-pyrazol-3-yl)-2-[4-(3-isopropyl-[1,2,4]-triazolo[4,3-a]pyridin-6-yloxy)-cyclohexyl]-acetamide], the EC50 in assay [1] was 500 to 7000 nM. Moreover, in assay [2], the 50% inhibitory concentration (IC50) lay within 500 to 2000 nM.

With `Cc1ccc(-n2nc(C(C)(C)C)cc2NC(=O)C(C)c2ccc(Sc3ccc4nnc(C(C)C)n4c3)cc2)cc1` (stereo not drawn) [Example 24, N-(5-tert-Butyl-2-p-tolyl-2H-pyrazol-3-yl)-2-[4-(3-isopropyl-[1,2,4]triazolo[4,3-a]pyridin-6-ylsulfanyl)-phenyl]-propionamide], the IC50 in assay [2] is 100 to 500 nM.

`Cc1ccc(-n2nc(C(C)(C)C)cc2NC(=O)N[C@H]2CC[C@H](Oc3ccc4nnc(C5CCCC5)n4c3)CC2)cc1` [Example 25, 1-(5-tert-Butyl-2-p-tolyl-2H-pyrazol-3-yl)-3-[4-(3-cyclopentyl-[1,2,4]triazolo[4,3-a]pyridin-6-yloxy)-cyclohexyl]-urea]: the IC50 in assay [2] is less than 10 nM.

For `CC(C)c1nnc2ccc(Sc3ccc(CC(=O)Nc4cc(C(C)(C)C)nn4-c4cccc(OCCc5ccncc5)c4)cc3)cn12` [Example 27, N-{5-tert-Butyl-2-[3-(2-pyridin-4-yl-ethoxy)-phenyl]-2H-pyrazol-3-yl}-2-[4-(3-isopropyl-[1,2,4]triazolo[4,3-a]pyridin-6-ylsulfanyl)-phenyl]-acetamide], the IC50 in assay [2] was in the range of 10 to 100 nM.

Consider `Cc1ccc(-n2nc(C(C)(C)C)cc2NC(=O)c2cccc(Sc3ccc4nnc(C(C)C)n4c3)c2)cc1` [Example 28], for which the 50% inhibitory concentration (IC50) in assay [2] was 10 to 100 nM.

With `Cc1ccc(-n2nc(C(C)(C)C)cc2NC(=O)NC2CCC(Oc3ccc4nnc(-c5ccccn5)n4c3)CC2)cc1` (stereo not drawn) [Example 29, 1-(5-tert-Butyl-2-p-tolyl-2H-pyrazol-3-yl)-3-[4-(3-pyridin-2-yl-[1,2,4]triazolo[4,3-a]pyridin-6-yloxy)-cyclohexyl]-urea], the IC50 in assay [2] lay within 10 to 100 nM.
